Assay results taken from patent US12583861B2, “Derivatives of imidazo[4,5-d]pyridazine, their preparation and their therapeutic application” (SANOFI, priority 2021, dated 2026).

What was measured:
Type in all cases: cell-based
[1] = tested on: IFN-α2a; assay: IFN-α2a cytokine activation in human PBMC (MSD assay); conditions: Homo sapiens, PBMC, 24 h
Experimental: (§1) The other below tests involving measuring the in vitro activity of some compounds of the disclosure on cytokines IFN-α2a, IL-6, IL29 and TNF-α were carried out using human PBMC (PBMCs).
(§2) The activity described below, with respect to TLR7, TLR8, IFN-α2a, IL-6, IL29 and TNF-α, is given by the half maximal effective concentration (EC50), which corresponds to the concentration required to obtain a 50% of the activation. The lower the EC50, the less the concentration of the compound is required to produce 50% of maximum activation and the higher the potency.
(§3) In Vitro Assay to Determine IFN-α2a, IL-6, IL29 and TNF-α Cytokine Activation:
(§4) Peripheral blood mononuclear cells were isolated by Ficoll density gradient centrifugation from peripheral blood samples obtained from healthy donors (EFS). Isolated PBMCs are washed twice with PBS and resuspended in RPMI-1640 medium supplement with 10% fetal bovine serum (FBS) at 5.10^5 cells/well in a 96-well plate. The cells were then incubated with the compounds to test at various doses (20 μM to 4.8.10-6 μM final) for 24 h at 37° C., 5% CO2. After 24 h treatment, the plates are centrifuged and the supernatant were collected and assayed for cytokines IFN-α2a, IL-6, IL29 and TNF-α using the Meso Scale Discovery (MSD) assay platform according to the manufacturer's instructions. Briefly, 25 μL of cell culture supernatants were incubated for 1 h at Room Temperature (RT) in custom Multi-Spot 96-well plates prior coated with capture antibodies. After washing, SULFO-TAG® labeled detection antibodies were added to each of the wells and incubated for 1 h RT before adding a read buffer.

[2] = tested on: TNF-α; assay: TNF-α cytokine activation in human PBMC (MSD assay); conditions: Homo sapiens, PBMC, 24 h
Experimental: as §1, §2, §3, §4

[3] = molecular target: T1, human TLR7 (Homo sapiens, UniProt Q9NYK1); assay: HEK-Blue hTLR7 reporter cell assay (SEAP, NF-kB/AP-1) for stimulation of human TLR7; conditions: HEK-Blue hTLR7 cells, 24 h incubation, SEAP readout; read-out: TLR7_EC50
T1 construct: host or cells: HEK293 (HEK-Blue hTLR7)
T1 sequence (Q9NYK1 27-1049): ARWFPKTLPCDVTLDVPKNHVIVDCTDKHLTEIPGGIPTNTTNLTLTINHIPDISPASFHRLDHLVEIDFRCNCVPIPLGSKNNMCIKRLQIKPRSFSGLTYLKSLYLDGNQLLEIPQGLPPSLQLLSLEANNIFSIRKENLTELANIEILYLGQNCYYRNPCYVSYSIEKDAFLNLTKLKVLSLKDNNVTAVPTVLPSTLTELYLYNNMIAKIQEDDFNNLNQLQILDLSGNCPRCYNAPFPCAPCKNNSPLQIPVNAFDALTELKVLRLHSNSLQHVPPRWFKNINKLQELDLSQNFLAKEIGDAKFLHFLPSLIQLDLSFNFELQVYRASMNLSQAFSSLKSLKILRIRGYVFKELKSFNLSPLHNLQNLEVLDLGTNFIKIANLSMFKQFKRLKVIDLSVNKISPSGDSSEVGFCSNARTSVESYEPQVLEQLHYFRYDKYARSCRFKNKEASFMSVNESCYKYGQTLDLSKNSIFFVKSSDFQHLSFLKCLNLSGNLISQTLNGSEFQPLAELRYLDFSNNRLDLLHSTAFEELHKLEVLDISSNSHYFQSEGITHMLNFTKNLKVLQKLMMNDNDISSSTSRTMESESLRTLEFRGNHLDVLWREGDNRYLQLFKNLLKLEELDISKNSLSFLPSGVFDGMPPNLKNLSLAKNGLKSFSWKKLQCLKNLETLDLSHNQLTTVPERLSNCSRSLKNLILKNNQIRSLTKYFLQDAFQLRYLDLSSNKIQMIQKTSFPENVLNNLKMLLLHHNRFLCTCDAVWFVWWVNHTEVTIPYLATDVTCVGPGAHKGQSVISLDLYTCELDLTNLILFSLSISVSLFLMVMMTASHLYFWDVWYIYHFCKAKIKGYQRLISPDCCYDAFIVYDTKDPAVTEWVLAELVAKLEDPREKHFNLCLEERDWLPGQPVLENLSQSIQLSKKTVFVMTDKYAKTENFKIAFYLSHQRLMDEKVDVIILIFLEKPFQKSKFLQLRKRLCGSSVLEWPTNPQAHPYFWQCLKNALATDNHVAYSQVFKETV
Outline: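 HEK293 cells expressing hTLR7 with NF-κB/AP-1-driven SEAP reporter, seeded 3.10E4 cells/well, pre-incubated 18–24 h, then exposed to 3-fold compound dilutions (0.01–20 μM) for 24 h at 37 °C. Supernatant SEAP read with QUANTI-Blue; EC50 as concentration giving 50% activation.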

[4] = tested on: IL29; assay: IL29 cytokine activation in human PBMC (MSD assay); conditions: Homo sapiens, PBMC, 24 h
Experimental: as §1, §2, §3, §4

[5] = tested on: IL-6; assay: IL-6 cytokine activation in human PBMC (MSD assay); conditions: Homo sapiens, PBMC, 24 h, read-out: IL6 EC50
Experimental: as §1, §2, §3, §4

EC50 [1] [nM]	EC50 [2] [nM]	EC50 [3] [nM]	EC50 [4] [nM]	EC50 [5] [nM]	SMILES
0.3	2400	28	0.3	83	CCCCc1nc2c(N)nnc(OC(C)C)c2n1C[C@H]1CC[C@H](CN)CC1 [Compound 20]
22	21	–	15	3	CCCCc1nc2c(N)nnc(N(C)Cc3ccc(CN(C)C)cc3)c2n1C [Compound 43, 2-butyl-N7-(4-((dimethylamino)methyl)benzyl)-N7,1-dimethyl-1H-imidazo[4,5-d]pyridazine-4,7-diamine]
